This is an account of results in ChEMBL document CHEMBL5230110, “FabI (enoyl acyl carrier protein reductase) - A potential broad spectrum therapeutic target and its inhibitors” (Eur J Med Chem, 2020).

Values after ≈ are worked out from the molar mass of the structure shown.

The nature of series [1]: Cytotoxicity against African green monkey Vero cells assessed as reduction in cell viability by coulter counter method. The class given is toxicity, cell-based. The note with it: chlorocebus sabaeus.
The subject of series [2] is Staphylococcus aureus. Nature of the series: Antibacterial activity against Staphylococcus aureus assessed as bacterial growth inhibition. The series is classed as functional.
Series [3] has as its system Escherichia coli. Nature of the series: Antibacterial activity against Escherichia coli assessed as bacterial growth inhibition. The class given is functional.
The test system of series [4] is Pseudomonas aeruginosa. Nature of the series: Antibacterial activity against Pseudomonas aeruginosa assessed as bacterial growth inhibition. The class given is functional.
The subject of series [5] is Mycobacterium tuberculosis. Nature of the series: Antimycobacterial activity against Mycobacterium tuberculosis H37Rv assessed as reduction in bacterial growth incubated for 7 days by dye based assay. The class given is functional. The note with it: 168 h, time 7 day.
Series [6] can be described thus: Selectivity index, ratio of CC50 for african green monkey Vero cells to CC50 for human HepG2 cells. To be noted: Vero cells and HepG2 cells, read-out: Selectivity Index. The series is classed as toxicity.
The nature of series [7]: Cytotoxicity against human HepG2 cells assessed as reduction in cell viability […] incubated for 48 hrs by MTT assay. The class given is toxicity, cell-based.
Series [8] has as its system Escherichia coli. Nature of the series: Antibacterial activity against Escherichia coli assessed as inhibition of LPS biosynthesis. The class given is functional.
The test system of series [9] is Staphylococcus aureus. The series is described as follows: Antibacterial activity against Staphylococcus aureus assessed as inhibition of bacterial growth measured after 24 hrs. The class given is functional.
The test system of series [10] is Escherichia coli. The series is described as follows: Antibacterial activity against Escherichia coli assessed as bacterial growth inhibition at 50 uM measured after 24 hrs by 96-wellplate reader assay method. The series is classed as functional.
Series [11] is described as follows: Inhibition of Plasmodium falciparum NF54 HDAC using extract measured after 60 mins by fluorescence assay. The note with it: read-out: IC50.
Series [12] deals with Mycobacterium tuberculosis. The series is described as follows: Antimycobacterial activity against Mycobacterium tuberculosis H37Rv after 14 days. The series is classed as functional. The note with it: 336 h, time 14 day.
The test system of another series is Plasmodium falciparum. Nature of the series: Antimalarial activity against Plasmodium falciparum by LDH assay. The class given is functional, organism-based.
Series [13] relates to Acinetobacter baumannii. The series is described as follows: Antibacterial activity against Acinetobacter baumannii W41979 assessed as inhibition of bacterial growth measured after 24 hrs by micro-dilution broth method. The class given is functional.
The test system of another series is Enterobacter cloacae. The series is described as follows: Antibacterial activity against Enterobacter cloacae assessed as inhibition of bacterial growth measured after 24 hrs by micro-dilution broth method. The class given is functional. (In general: Dilution methods test growth across graded concentrations, often in twofold steps.)
In series [14] the test system is Pseudomonas aeruginosa. Nature of the series: Antibacterial activity against Pseudomonas aeruginosa assessed as bacterial growth inhibition measured after 24 hrs by micr-dilution broth method. The series is classed as functional.
Series [15] deals with Klebsiella pneumoniae. The series is described as follows: Antibacterial activity against Klebsiella pneumoniae BAA-1705 assessed as inhibition of bacterial growth measured after 24 hrs by micro-dilution broth method. The class given is functional.
The subject of series [16] is Staphylococcus aureus. Nature of the series: Antibacterial activity against Staphylococcus aureus assessed as inhibition of bacterial growth measured after 24 hrs by micro-dilution broth method. The class given is functional.
Series [17] relates to Escherichia coli. Nature of the series: Antibacterial activity against Escherichia coli assessed as inhibition of bacterial growth measured after 24 hrs by micro-dilution broth method. The series is classed as functional.
Series [18] has as its system Staphylococcus aureus. Nature of the series: Antibacterial activity in Swiss albino mouse model infected with Methicillin-resistant Staphylococcus aureus NRS 382 assessed as reduction in bacterial growth. The series is classed as functional.
Series [19] relates to Staphylococcus aureus. Nature of the series: Antibacterial activity against methicillin resistant Staphylococcus aureus assessed as reduction in bacterial growth incubated for 12 hrs by microdilution method. The series is classed as functional.
Series [20] deals with Staphylococcus aureus. The series is described as follows: Antibacterial activity in Swiss albino mouse model infected with Methicillin- sensitive Staphylococcus aureus ATCC 29213 assessed as reduction in bacterial growth. The series is classed as functional.
In series [21] the target is T1, Enoyl-[acyl-carrier-protein] reductase [NADH] FabI (Escherichia coli K-12, UniProt P0AEK4).
T1 sequence (P0AEK4 whole entry): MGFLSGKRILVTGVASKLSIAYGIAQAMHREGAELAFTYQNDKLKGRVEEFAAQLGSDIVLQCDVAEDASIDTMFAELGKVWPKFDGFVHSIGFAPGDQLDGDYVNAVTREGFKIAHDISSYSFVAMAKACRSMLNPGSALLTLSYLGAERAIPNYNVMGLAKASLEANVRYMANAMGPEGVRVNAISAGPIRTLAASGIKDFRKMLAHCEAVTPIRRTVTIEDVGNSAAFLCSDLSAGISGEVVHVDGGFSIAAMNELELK
The series is described as follows: Inhibition of Escherichia coli FabI in the presence of NADH using crotonyl CoA as substrate by measuring NADH consumption rate.

Series [22] concerns the target T1, Enoyl-[acyl-carrier-protein] reductase [NADH] FabI. The series is described as follows: Inhibition of Escherichia coli DH5alpha FabI in the presence of NADH using crotonyl CoA as substrate by measuring NADH consumption rate.
Series [23] relates to Staphylococcus aureus. Nature of the series: Antibacterial activity against methicillin-susceptible Staphylococcus aureus assessed as reduction in bacterial growth. The series is classed as functional.
For series [24], the target named is T2, Enoyl-[acyl-carrier-protein] reductase [NADH] (Mycobacterium tuberculosis, UniProt P9WGR1).
T2 sequence (P9WGR1 whole entry): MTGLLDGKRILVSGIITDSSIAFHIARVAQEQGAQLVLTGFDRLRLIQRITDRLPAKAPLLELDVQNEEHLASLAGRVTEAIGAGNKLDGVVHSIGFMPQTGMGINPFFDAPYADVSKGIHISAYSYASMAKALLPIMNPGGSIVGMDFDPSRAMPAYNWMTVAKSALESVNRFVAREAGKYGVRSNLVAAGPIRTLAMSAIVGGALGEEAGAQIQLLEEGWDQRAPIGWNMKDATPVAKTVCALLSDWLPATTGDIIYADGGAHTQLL
Nature of the series: Inhibition of Mycobacterial tuberculosis ATCC 25618 FabI assessed as measuring NADH consumption rate.

Series [25] concerns Acinetobacter baumannii. The series is described as follows: Antibacterial activity against Acinetobacter baumannii W41979. The series is classed as functional.
Series [26] relates to Klebsiella pneumoniae. Nature of the series: Antibacterial activity against Klebsiella pneumoniae BAA-1705. The series is classed as functional.
For series [27], the system named is Staphylococcus aureus. The series is described as follows: Antibacterial activity against methicillin-sensitive Staphylococcus aureus assessed as reduction in bacterial growth incubated for 12 hrs by microdilution method. The series is classed as functional.
The target of series [28] is T3, Enoyl-[acyl-carrier-protein] reductase [NADPH] FabI (Staphylococcus aureus, UniProt Q6GI75).
T3 sequence (Q6GI75 whole entry): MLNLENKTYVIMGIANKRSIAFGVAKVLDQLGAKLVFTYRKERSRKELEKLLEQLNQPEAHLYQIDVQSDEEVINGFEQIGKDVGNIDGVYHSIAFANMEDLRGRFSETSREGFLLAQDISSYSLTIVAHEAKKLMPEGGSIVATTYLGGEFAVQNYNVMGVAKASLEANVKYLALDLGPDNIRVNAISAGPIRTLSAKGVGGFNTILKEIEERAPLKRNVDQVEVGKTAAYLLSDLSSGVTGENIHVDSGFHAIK
The series is described as follows: Inhibition of Staphylococcus aureus FabI assessed as inhibition of bacterial growth by measuring the NADH consumption rate at 20 mins.

Series [29] deals with Staphylococcus epidermidis. The series is described as follows: Antibacterial activity against methicillin-resistant Staphylococcus epidermidis assessed as reduction in bacterial growth incubated for 12 hrs by microdilution method. The series is classed as functional.
Series [30] concerns the target T3, Enoyl-[acyl-carrier-protein] reductase [NADPH] FabI. Nature of the series: Inhibition of Staphylococcus aureus ATCC 29213 FabI in the presence of NADH using crotonyl CoA as substrate by measuring NADH consumption rate.
For series [31], the system named is Staphylococcus aureus. Nature of the series: Antibacterial activity against Staphylococcus aureus ATCC 29213 assessed as bacterial growth inhibition incubated for 24 hrs by broth dilution method. The series is classed as functional.
The test system of series [32] is Escherichia coli. Nature of the series: Antibacterial activity against Escherichia coli BAA 2340 assessed as reduction in microbial growth inhibition. The class given is functional.
For series [33], the system named is Staphylococcus epidermidis. The series is described as follows: Antibacterial activity against methicillin-sensitive Staphylococcus epidermidis assessed as reduction in bacterial growth incubated for 12 hrs by microdilution method. The series is classed as functional.

For orientation: CC50 means the concentration giving 50% cytotoxicity. As usually defined, the MIC is the lowest concentration found to suppress growth. As to `Cc1ccc(C2=NCC(c3ccc(Oc4ccccc4)c(O)c3)C2)cc1` (stereo not given), the CC50 in series [1] was greater than 646000 nM. The MIC in the series on Staphylococcus aureus [2] stood at 9 µM (≈ 3.09 µg/mL); in the series on Escherichia coli [3] it was 18.2 µM (≈ 6.26 µg/mL); with Pseudomonas aeruginosa [4] it was 18 µM (≈ 6.18 µg/mL); in series [5], 18 µM (≈ 6.18 µg/mL). The selectivity ratio in [6] is greater than 10. Besides, in series [7], the 50% cytotoxic concentration (CC50) at 48 h is greater than 596000 nM.
Turning to `CCCS(=O)(=O)N1N=Cc2cc(C)sc2B1O`, in the series on Escherichia coli [8], the MIC was 1.25 µg/mL (≈ 4.59 µM).
In general, IC50 refers to the midpoint of a concentration-inhibition curve. One may read the EC50 as the midpoint of the concentration-response curve. Regarding `Oc1cc(Cl)ccc1Oc1ccc(Cl)cc1Cl` [TRICLOSAN], the MIC in the series on Staphylococcus aureus [9] came to 0.016 µg/mL (≈ 0.0553 µM); in the series with Escherichia coli [10], 0.3 µg/mL (≈ 1.04 µM); in series [12], 12.5 µg/mL (≈ 43.2 µM). Besides, the half-maximal inhibitory concentration (IC50) in series [11] is 73 nM. The compound also returned a 50% effective concentration (EC50) in the series with Plasmodium falciparum of 0.8 µg/mL (≈ 2.76 µM).
For the compound `Cc1cc(=O)n(C)c2c3c4c(cc12)c(C)cc(=O)n4CCO3`, the MIC is 16 µg/mL (≈ 54 µM) in the series on Acinetobacter baumannii [13]; greater than 32 µg/mL in the series with Enterobacter cloacae; greater than 32 µg/mL with Pseudomonas aeruginosa [14]; greater than 32 µg/mL with Klebsiella pneumoniae [15]; 0.06 µg/mL (≈ 0.202 µM) with Staphylococcus aureus [16]; greater than 32 µg/mL with Escherichia coli [17].
By ED50 is commonly meant the dose that gives a 50% effect, or the effect in half of the subjects. A word on the MIC90: it is the lowest concentration that inhibits either 90% of growth or 90% of the strains tested, depending on the study. As for `CCc1cc(O)c(Oc2ccc(C(N)=O)cc2F)cc1F`, the results for the ED50 in the series on Staphylococcus aureus [18] and in the series on Staphylococcus aureus [20] were 19.3 mg/kg/day and 40 mg/kg/day, respectively. The MIC90 amounted to 0.12 µg/mL (≈ 0.409 µM) in the series with Staphylococcus aureus [19] and 0.03 µg/mL (≈ 0.102 µM) in the series with Staphylococcus aureus [23]. Also, the 50% inhibitory concentration (IC50) in series [21] and in [22] was 58 nM throughout.
On to `C=C1C(=O)OC[C@H]1C/C=C(\C)CC(=O)C=C(C)C`, for which, in series [24], the IC50 was 18100 nM.
Take `Cc1c(CN(C)C(=O)/C=C/c2cnc3c(c2)CCC(=O)N3)oc2ccccc12` [AFN-1252]: the MIC is greater than 32 µg/mL in the series on Acinetobacter baumannii [25], greater than 32 µg/mL against Klebsiella pneumoniae [26], 0.008 µg/mL (≈ 0.0213 µM) in the series on Staphylococcus aureus [31] and greater than 32 µg/mL in the series on Escherichia coli [32]. Moreover, the MIC90 with Staphylococcus aureus [27] is no more than 0.008 µg/mL; in series [29], no more than 0.008 µg/mL; in series [33], 0.03 µg/mL (≈ 0.0799 µM). The values for the IC50 in series [28] and in series [30] were 14 nM and 9600 nM, respectively.
